Literature values in patent US20200163962A1, “PHARMACEUTICAL COMPOSITION OF NILOTINIB” (SUN PHARMACEUTICAL INDUSTRIES LTD., priority 2016, published 2020).

Experiments:
[1] = particularly the hydrochloride
[2] = ingested with or after meals, particularly high fat meals

Cc1cn(-c2cc(NC(=O)c3ccc(C)c(Nc4nccc(-c5cccnc5)n4)c3)cc(C(F)(F)F)c2)cn1 [Nilotinib, 4-methyl-N-[3-(4-methyl-1H-imidazol-1-yl)-5-(trifluoromethyl)phenyl]-3-[[4-(3-pyridinyl)-2-pyrimidinyl]amino]-benzamide]
increase of systemic exposure (AUC) compared to the fasted state (dose given 30 minutes after a high fat meal): 82%
increase of Cmax with food [2]: 112%
increase of area under the plasma profile curve with food [2]: 82%
water solubility [1]: poorly water soluble
